Experimental data published in article PMC6979384, “Characterization of the plant homeodomain (PHD) reader family for their histone tail interactions” (Epigenetics & Chromatin, 2020).

Tests used:
Experiment in all cases: Histone peptide microarray
Assay type in all cases: binding, human
Conditions in all cases: total n = 4
[1] = system: PHF2
Procedure, shortened: (§1)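 Mean ± SD of 4 replicate array intensities; GST-PHD finger at 0.5 μM against 293 PTM-bearing histone peptides.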

[2] = system: KDM5B (1)
Procedure, shortened: as §1

[3] = system: SP140L
Procedure, shortened: as §1

[4] = system: CHD5 (PPCC)
Procedure, shortened: as §1

[5] = system: PHRF1 (RP)
Procedure, shortened: as §1

[6] = system: DPF2 (PPC2W2)
Procedure, shortened: as §1

[7] = system: KDM7A
Procedure, shortened: as §1

[8] = system: BPTF (PB)
Procedure, shortened: as §1

[9] = system: TAF3
Procedure, shortened: as §1

[10] = system: KDM5A (1)
Procedure, shortened: as §1

[11] = system: PHF8
Procedure, shortened: as §1

[12] = system: DIDO1
Procedure, shortened: as §1

[13] = system: BAZ2B
Procedure, shortened: as §1

[14] = system: AIRE (PP)
Procedure, shortened: as §1

[15] = system: RAG2
Procedure, shortened: as §1

[16] = system: PHF13
Procedure, shortened: as §1

[17] = system: ING3
Procedure, shortened: as §1

[18] = system: MLL5
Procedure, shortened: as §1

[19] = system: KDM5A (3)
Procedure, shortened: as §1

[20] = system: MORC3 (CW)
Procedure, shortened: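 GST-tagged PHD finger readers were expressed, purified and applied at 0.5 μM to a microarray of 293 synthetic histone peptides carrying single or combinatorial PTMs, using an optimized protocol. Binding signals are averages with standard deviation from 4 replicates.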

[21] = system: TRIM66 (PB)
Procedure, shortened: as §1

[22] = system: ING2
Procedure, shortened: as §1

[23] = system: PHF23
Procedure, shortened: as §1

[24] = system: CHD5 (PCC)
Procedure, shortened: as §1

[25] = system: ING5
Procedure, shortened: as §1

[26] = system: ING1
Procedure, shortened: as §1

[27] = system: KDM4C (TTP)
Procedure, shortened: as §1

[28] = system: ING4
Procedure, shortened: as §1

[29] = system: PHF21A
Procedure, shortened: as §1

[30] = system: CHD4 (PPCC)
Procedure, shortened: as §1

[31] = system: KDM5B (3)
Procedure, shortened: as §1

[32] = sheet "Array Heatmap", GST-tagged reader, histone peptide array

H3K4me3 + K14ac: H3 1-20
Array Heatmap signal (histone peptide microarray) ([1]; GST-tagged PHF2, sheet Array Heatmap, each array performed twice): 0.9532
Array Heatmap signal (histone peptide microarray) ([2]; GST-tagged KDM5B (1), sheet Array Heatmap, each array performed twice): 0.7346
Array Heatmap signal (histone peptide microarray) ([3]; GST-tagged SP140L, sheet Array Heatmap, each array performed twice): 0.3446
Array Heatmap signal (histone peptide microarray) ([4]; GST-tagged CHD5 (PPCC = Dual PHD + Dual Chromodomain), sheet Array Heatmap, each array performed twice): 0.5519
Array Heatmap signal (histone peptide microarray) ([5]; GST-tagged PHRF1 (RP), sheet Array Heatmap, each array performed twice): 0.6002
Array Heatmap signal (histone peptide microarray) ([6]; GST-tagged DPF2 (PPC2W2 = Dual PHD + C2W2-type Zn-finger), sheet Array Heatmap, each array performed twice): 0.7495
Array Heatmap signal (histone peptide microarray) ([7]; GST-tagged KDM7A, sheet Array Heatmap, each array performed twice): 0.4569
Array Heatmap signal (histone peptide microarray) ([8]; GST-tagged BPTF (PB = PHD + Bromodomain), sheet Array Heatmap, each array performed twice): 0.8401
Array Heatmap signal (histone peptide microarray) ([9]; GST-tagged TAF3, sheet Array Heatmap, each array performed twice): 0.7363
Array Heatmap signal (histone peptide microarray) ([10]; GST-tagged KDM5A (1), sheet Array Heatmap, each array performed twice): 0.4609
Array Heatmap signal (histone peptide microarray) ([11]; GST-tagged PHF8, sheet Array Heatmap, each array performed twice): 0.6468
Array Heatmap signal (histone peptide microarray) ([12]; GST-tagged DIDO1, sheet Array Heatmap, each array performed twice): 1
Array Heatmap signal (histone peptide microarray) ([13]; GST-tagged BAZ2B, sheet Array Heatmap, each array performed twice): 0.6127
Array Heatmap signal (histone peptide microarray) ([14]; GST-tagged AIRE (PP), sheet Array Heatmap, each array performed twice): 0.3995
Array Heatmap signal (histone peptide microarray) ([15]; GST-tagged RAG2, sheet Array Heatmap, each array performed twice): 0.9484
Array Heatmap signal (histone peptide microarray) ([16]; GST-tagged PHF13, sheet Array Heatmap, each array performed twice): 0.8156
Array Heatmap signal (histone peptide microarray) ([17]; GST-tagged ING3, sheet Array Heatmap, each array performed twice): 0.9261
Array Heatmap signal (histone peptide microarray) ([18]; GST-tagged MLL5, sheet Array Heatmap, each array performed twice): 0.8336
Array Heatmap signal (histone peptide microarray) ([19]; GST-tagged KDM5A (3), sheet Array Heatmap, each array performed twice): 0.8892
Array Heatmap signal (histone peptide microarray) ([20]; GST-tagged MORC3 (CW = CW-type Zn-finger), sheet Array Heatmap, each array performed twice): 0.8691
Array Heatmap signal (histone peptide microarray) ([21]; GST-tagged TRIM66 (PB = PHD + Bromodomain), sheet Array Heatmap, each array performed twice): 0.6346
Array Heatmap signal (histone peptide microarray) ([22]; GST-tagged ING2, sheet Array Heatmap, each array performed twice): 0.9757
Array Heatmap signal (histone peptide microarray) ([23]; GST-tagged PHF23, sheet Array Heatmap, each array performed twice): 0.8632
Array Heatmap signal (histone peptide microarray) ([24]; GST-tagged CHD5 (PCC = PHD + Dual Chromodomain), sheet Array Heatmap, each array performed twice): 0.7404
Array Heatmap signal (histone peptide microarray) ([25]; GST-tagged ING5, sheet Array Heatmap, each array performed twice): 0.4275
Array Heatmap signal (histone peptide microarray) ([26]; GST-tagged ING1, sheet Array Heatmap, each array performed twice): 0.9202
Array Heatmap signal (histone peptide microarray) ([27]; GST-tagged KDM4C (TTP = Tandem Tudor domain + PHD), sheet Array Heatmap, each array performed twice): 0.599
Array Heatmap signal (histone peptide microarray) ([28]; GST-tagged ING4, sheet Array Heatmap, each array performed twice): 0.6504
Array Heatmap signal (histone peptide microarray) ([29]; GST-tagged PHF21A, sheet Array Heatmap, each array performed twice): 0.4155
Array Heatmap signal (histone peptide microarray) ([30]; GST-tagged CHD4 (PPCC = Dual PHD + Dual Chromodomain), sheet Array Heatmap, each array performed twice): 0.6173
Array Heatmap signal (histone peptide microarray) ([31]; GST-tagged KDM5B (3), sheet Array Heatmap, each array performed twice): 0.7921

H2A.X (1-17): H2AX 1-17 (SGRGKTGGKARAKAKSR; UniProt P16104 2-18, looked up, fragment)
Array Heatmap value (peptide array signal) ([1]; PHF2, sheet "Array Heatmap", each array performed twice): 0.3941
Array Heatmap value (peptide array signal) ([2]; KDM5B (1), sheet "Array Heatmap", each array performed twice): 0.6651
Array Heatmap value (peptide array signal) ([3]; SP140L, sheet "Array Heatmap", each array performed twice): 0.3804
Array Heatmap value (peptide array signal) ([4]; CHD5 (PPCC), sheet "Array Heatmap", each array performed twice): 0.5657
Array Heatmap value (peptide array signal) ([5]; PHRF1 (RP), sheet "Array Heatmap", each array performed twice): 0.3918
Array Heatmap value (peptide array signal) ([6]; DPF2 (PPC2W2), sheet "Array Heatmap", each array performed twice): 0.6636
Array Heatmap value (peptide array signal) ([7]; KDM7A, sheet "Array Heatmap", each array performed twice): 0.5198
Array Heatmap value (peptide array signal) ([8]; BPTF (PB), sheet "Array Heatmap", each array performed twice): 0.3452
Array Heatmap value (peptide array signal) ([9]; TAF3, sheet "Array Heatmap", each array performed twice): 0.2689
Array Heatmap value (peptide array signal) ([10]; KDM5A (1), sheet "Array Heatmap", each array performed twice): 0.4987
Array Heatmap value (peptide array signal) ([11]; PHF8, sheet "Array Heatmap", each array performed twice): 0.3196
Array Heatmap value (peptide array signal) ([12]; DIDO1, sheet "Array Heatmap", each array performed twice): 0.6032
Array Heatmap value (peptide array signal) ([13]; BAZ2B, sheet "Array Heatmap", each array performed twice): 0.5024
Array Heatmap value (peptide array signal) ([14]; AIRE (PP), sheet "Array Heatmap", each array performed twice): 0.5574
Array Heatmap value (peptide array signal) ([15]; RAG2, sheet "Array Heatmap", each array performed twice): 0.2388
Array Heatmap value (peptide array signal) ([16]; PHF13, sheet "Array Heatmap", each array performed twice): 0.6046
Array Heatmap value (peptide array signal) ([17]; ING3, sheet "Array Heatmap", each array performed twice): 0.4419
Array Heatmap value (peptide array signal) ([18]; MLL5, sheet "Array Heatmap", each array performed twice): 0.5474
Array Heatmap value (peptide array signal) ([19]; KDM5A (3), sheet "Array Heatmap", each array performed twice): 0.4093
Array Heatmap value (peptide array signal) ([20]; MORC3 (CW), sheet "Array Heatmap", each array performed twice): 0.3549
Array Heatmap value (peptide array signal) ([21]; TRIM66 (PB), sheet "Array Heatmap", each array performed twice): 0.5377
Array Heatmap value (peptide array signal) ([22]; ING2, sheet "Array Heatmap", each array performed twice): 0.5852
Array Heatmap value (peptide array signal) ([23]; PHF23, sheet "Array Heatmap", each array performed twice): 0.4786
Array Heatmap value (peptide array signal) ([24]; CHD5 (PCC), sheet "Array Heatmap", each array performed twice): 0.8255
Array Heatmap value (peptide array signal) ([25]; ING5, sheet "Array Heatmap", each array performed twice): 0.3684
Array Heatmap value (peptide array signal) ([26]; ING1, sheet "Array Heatmap", each array performed twice): 0.4806
Array Heatmap value (peptide array signal) ([27]; KDM4C (TTP), sheet "Array Heatmap", each array performed twice): 0.5423
Array Heatmap value (peptide array signal) ([28]; ING4, sheet "Array Heatmap", each array performed twice): 0.4775
Array Heatmap value (peptide array signal) ([29]; PHF21A, sheet "Array Heatmap", each array performed twice): 0.4705
Array Heatmap value (peptide array signal) ([30]; CHD4 (PPCC), sheet "Array Heatmap", each array performed twice): 0.5416
Array Heatmap value (peptide array signal) ([31]; KDM5B (3), sheet "Array Heatmap", each array performed twice): 0.4974

H3K9ac + S10p: H3 1-20
Array Heatmap signal, PHF2 [1, 32]: 0.4212
Array Heatmap signal, KDM5B (1) [2, 32]: 0.6761
Array Heatmap signal, SP140L [3, 32]: 0.3709
Array Heatmap signal, CHD5 (PPCC) [4, 32]: 0.5687
Array Heatmap signal, PHRF1 (RP) [5, 32]: 0.4935
Array Heatmap signal, DPF2 (PPC2W2) [6, 32]: 0.6808
Array Heatmap signal, KDM7A [7, 32]: 0.5012
Array Heatmap signal, BPTF (PB) [8, 32]: 0.3364
Array Heatmap signal, TAF3 [9, 32]: 0.2808
Array Heatmap signal, KDM5A (1) [10, 32]: 0.5046
Array Heatmap signal, PHF8 [11, 32]: 0.3696
Array Heatmap signal, DIDO1 [12, 32]: 0.6052
Array Heatmap signal, BAZ2B [13, 32]: 0.4929
Array Heatmap signal, AIRE (PP) [14, 32]: 0.6057
Array Heatmap signal, RAG2 [15, 32]: 0.2427
Array Heatmap signal, PHF13 [16, 32]: 0.5949
Array Heatmap signal, ING3 [17, 32]: 0.4478
Array Heatmap signal, MLL5 [18, 32]: 0.5353
Array Heatmap signal, KDM5A (3) [19, 32]: 0.462
Array Heatmap signal, MORC3 (CW) [20, 32]: 0.3729
Array Heatmap signal, TRIM66 (PB) [21, 32]: 0.5818
Array Heatmap signal, ING2 [22, 32]: 0.597
Array Heatmap signal, PHF23 [23, 32]: 0.5104
Array Heatmap signal, CHD5 (PCC) [24, 32]: 0.846
Array Heatmap signal, ING5 [25, 32]: 0.3597
Array Heatmap signal, ING1 [26, 32]: 0.4982
Array Heatmap signal, KDM4C (TTP) [27, 32]: 0.5441
Array Heatmap signal, ING4 [28, 32]: 0.4766
Array Heatmap signal, PHF21A [29, 32]: 0.4788
Array Heatmap signal, CHD4 (PPCC) [30, 32]: 0.5496
Array Heatmap signal, KDM5B (3) [31, 32]: 0.53
